This experiment concerns RAW264.7. The experiment can be described thus: Antiinflammatory activity in mouse RAW264.7 cells assessed as inhibition of LPS-induced NO production compound pretreated for 1 hr followed by addition of 100 ng/ml LPS for 24 hrs by griess method. Type of experiment: functional, cell-based. (In general: The Griess reaction detects nitrite, a stable product of nitric oxide.)
Take `COC(=O)c1c(O)c2ccccc2c2nc(C)ccc12`: the IC50 is greater than 50 µM.

Consider `CNC(=N)NCCC[C@H](N)C(=O)O` [TILARGININE], for which the IC50 is 73.3 µM.

For the molecule `COC(=O)C1=C2C=CC(C)(C)OC2(O)c2ccccc2C1=O` (stereo unspecified), the IC50 worked out at 1.3 µM.

As to `COC(=O)c1c(O)c2ccccc2c2ncccc12`, the IC50 is greater than 50 µM.

Regarding `COC(=O)C1=C2C=CC(C)(C)N=C2c2ccccc2C1=O`, the IC50 is 0.34 µM and the inhibition entry was “Dose-dependent effect”.

The term IC50 denotes the concentration that gives 50% inhibition.

The values above are taken from ChEMBL document CHEMBL3745666, “Syntheses and anti-inflammatory activity of azamollugin derivatives” (Bioorg Med Chem Lett, 2016).
